Experiment [1] concerns preformed non-radioactive thrombi in the jugular vein. As to the kind of experiment: Rabbit jugular vein thrombosis model: inhibition of thrombus accretion during thrombolysis with t-PA. Format: in vivo, New Zealand white rabbits. The procedure:
The experiments are performed with New Zealand white rabbits (weighing 2.3-3.5 kg) anaesthesized by intravenous (marginal ear vein) injection of 30 mg/kg sodium pentobarbital. Through a paramedical incision of the neck, the jugular veins and the right carotid artery are exposed. The right carotid artery is cannulated with a 1.5 mm diameter polyethylene cannula for blood sampling. The two jugular veins are isolated, cleared over a distance of 2 cm, small side branches are ligated. Each jugular segment is emptied of blood and blood flow is temporarily occluded both proximally and distally by two angiostaths, 1.5 cm apart. A 10 cm length 3.0 TiCron braided polyester suture, presoaked in a collagen solution, is introduced lengthwise in the lumen of the isolated jugular vein for a distance of 4 cm to avoid the embolization of the thrombus to be produced. […] The effects of standard heparin and recombinant desulfato hirudin in preventing thrombus extension during thrombolysis with t-PA are assessed as their ability to inhibit the accretion of ^125 I-fibrinogen onto autologous non-radioactive thrombi preformed in the jugular vein of rabbits. […] The ratio of the radioactivity of the thrombus to the circulating fibrinogen radioactivity is used to quantify thrombus size, which is then expressed as μg or ^125 I-fibrinogen accreted onto the thrombus.

Experiment [2] has as its system activated partial thromboplastin time. As to the kind of experiment: aPTT prolongation in control experiments (rabbit model). Format: in vivo, New Zealand white rabbits. To be noted: heparin 0.75 mg/kg, hirudin 1 mg/kg. Here is the method: Intravenous infusions are carried out by using a constant rate infusion pump. t-PA derived from melanoma cell cultures is obtained from BioResponse, USA. A total dose of 0.5 mg t-PA is infused through the marginal ear vein over a period of 3 hours. Along with t-PA either saline, standard heparin (KabiVitrum, Sweden, 140 USP/mg; 0.75 mg/kg) or hirudin (1 mg/kg) are infused. Doses of heparin and hirudin are used which give in control experiments the same prolongation in aPTT (activated partial thromboplastin time), e.g. times two.

Experiment [3] has as its system coagulation (clotting time, aPTT) of citrated plasma. As to the kind of experiment: In vitro clot lysis / coagulation in citrated plasma with t-PA. Particulars: for concentration leading to the same prolongation of aPTT (equipotent concentration): human citrated plasma. Format: biochemical, Human. Here is the method: Human blood is directly withdrawn into 3.8% sodium citrate solution (ratio blood/citrate solution 9:1). The mixture is centrifuged at 1,000 rpm for 10 min to yield citrated plasma.
A mixture consisting of 150 μl citrated plasma 125 μl 0.9% sodium chloride solution 100 μl desulfato hirudin HV1 or MCI-9038 (see below) in 0.9% sodium chloride is prepared directly in 1 ml cuvettes equilibrated at 37° C. The mixture is incubated for 15 min at 37° C. Then, 25 μl of a 1 μg/ml t-PA stock solution (American Diagnostica, New York) and 300 μl 0.0025M calcium chloride solution are added to start coagulation.
The change in the optical density (coagulation) is continuously measured at 608 nm in a Uvikon 810 P spectrophotometer equipped with a kinetic program.
The time (in minutes) from addition of the CaCl2 solution to a change in absorbance greater than 0.025 is defined as the coagulation time. The clot lysis time (in minutes) is defined as the time from the beginning of the clotting to the time at which the absorbance decreased to 10% of the maximum absorbance.
The thrombin inhibitor MCI-9038 [(2R,4R)-4-methyl-1-[N^2 -[(3-methyl-1,2,3,4-tetrahydro-8-quinolyl)-sulfonyl]-L-arginyl]-2-piperidinecarboxylic acid] is chemically synthesized as described in S. Okamoto et al., Biochem. Biophys. Res. Commun. 101, 440-446 (1981). It is used at the following end concentrations: 0.07, 0.14, 0.28, 0.56 and 1.1 μM. The desulfato hirudin used has been prepared by recombinant DNA technology using transformed yeast according to the procedure described in European Patent Application No. 225,633. It is used at the following end concentrations: 0.8, 1.6, 3.2, 8 and 16 nM. The concentrations chosen of MCI-9038 and desulfato hirudin are equipotent concentrations in terms of prolongation of clotting time (coagulation), e.g. 1.2 μM MCl-9038 and 16 nM desulfato hirudin lead to the same prolongation of aPTT.

Regarding desulfato hirudin HV1, the “effect on thrombus accretion during t-PA thrombolysis” value in experiment [1] (FIG. 1, infused along with t-PA, heparin 0.75 mg/kg, desulfato hirudin 1 mg/kg) is reported as “clear reduction in thrombus accretion”. For the same compound, the “effect on thrombus accretion with increasing concentrations” value in experiment [1] (FIG. 2, t-PA with various concentrations of desulfato hirudin) is given as “this effect can even be potentiated”. In addition, the “prolongation in aPTT” value in experiment [2] was “times two”. Besides, in experiment [3] (equipotent with 1.2 μM MCI-9038), the “concentration leading to the same prolongation of aPTT (equipotent concentration)” value came to 16 nM.

In the case of `CC1CNc2c(cccc2S(=O)(=O)N[C@@H](CCCNC(=N)N)C(=O)N2CC[C@@H](C)C[C@@H]2C(=O)O)C1` (stereo partly drawn) [MCI-9038, (2R,4R)-4-methyl-1-[N^2-[(3-methyl-1,2,3,4-tetrahydro-8-quinolyl)-sulfonyl]-L-arginyl]-2-piperidinecarboxylic acid], the “concentration leading to the same prolongation of aPTT (equipotent concentration)” value in experiment [3] (equipotent with 16 nM desulfato hirudin) turned out to be 1200 nM. In addition, in experiment [3] (relative to desulfato hirudin, in vitro clot lysis), the “concentration needed to achieve the same effect as a given concentration of desulfato hirudin” value is “twenty-fold”.
